# Assay results published in patent US20110105436A1, “HETEROARYL COMPOUNDS, COMPOSITIONS, AND METHODS OF USE IN CANCER TREATMENT” (AUCKLAND UNISERVICES LIMITED, priority 2008, published 2011).
# How the values were obtained:
# RCC4 cells = assay: XTT assay in VHL-deficient RCC4 cells; format: cell-based; conditions: Homo sapiens, 96 h, XTT assay, VHL-deficient RCC4 cells, four days
# Method: Cell Viability and XTT assays. For cell viability, 100,000 cells were plated in a 12-well plate. The following day, 1.25 μM STF-62247 was added in the presence or absence of 1 mM 3-MA for 24 hours at 37° C. Cells were trypsinized and counted by trypan blue exclusion. For XTT assays, 5000 RCC4 with and without VHL cells or 2,500 SN12C with and without VHL shRNA cells were plated in 96-well plates. The following day, vehicle (DMSO), STF-62247 or each of 19 analogs were added to media by serial dilution. Four days later, the media was aspirated and XTT solution containing 0.3 mg/ml of XTT (Sigma Chemical Co) in Phenol Red-free media, 20% FCS and 2.65 mg/ml N-methyl dibenzopyrazine methyl sulfate (PMS) was added to the cells and incubated at 37° C. for 1-2 hours. Metabolism of XTT was quantified by measuring the absorbance at 450 nm on a plate reader.
# LC3 = LC3 processing by Western blot and immunostaining; format: cell-based; conditions: co-treatment with 1.25 μM STF-62247, 20 hrs, VHL-deficient RCC cells
# Method: Western blot analysis. After treatments, cells were lysed in urea buffer (9M urea, 75 mM Tris (pH 7.5), 150 mM b-mercaptoethanol), placed on ice for 10 minutes and sonicated briefly (15 seconds). Extracts were centrifugated at 8,000×g for 10 minutes to eliminate insoluble material. Lysates were quantitated using Bio-Rad protein Assay (Bio-Rad Laboratories) and 20-30 μg of proteins were separated on a 7.5% or 15% bis-acrylamide gels and then transferred onto PVDF membranes. Proteins were visualized using HIF-2α (Novus Biological), HIF-1α, pVHL and BiP (BD Biosciences), LC3 (MBL), Atg5, or α-tubulin antibodies.
# Immunofluorescence staining. Cells were seeded on glass coverslips and at subconfluence, STF-62247 was added at 1.25 μM for RCC4 and 3.75 μM for SN12C. After 20 hours, cells were fixed in 3.7% formaldehyde for 10 min at room temperature and washed in PBS. Then cells were permeabilized in 0.2% Triton X-100 for 5 min at room temperature and washed in PBS. The coverslips were incubated with primary antibody LC3 diluted 1:500 in PBS containing 0.2% BSA for 1 hour at room temperature. Cells were washed three times in PBS-BSA and the bound primary antibody was detected using a fluorescein-conjugated secondary antibody (ALEXA) diluted 1:500 in PBS-BSA and incubated for 1 hour. Coverslips were washed and mounted in mounting medium from Vector Laboratories according to the manufacturer's instructions. Cells were examined with a confocal microscope
# A. Phase contrast pictures of VHL-deficient RCC4 and SN12C-VHL shRNA cells and VHL-positive cells RCC4 and SN12C after 20 hrs of 1.25 μM STF-62247. B. Immunostaining for LC3 following STF-62247 treatment at 1.25 μM for 20 hrs with or without 2 mM of 3-MA in RCC4 with and without VHL cells. After treatment, cells were fixed, permeabilized and processed for the detection of punctuate staining by indirect immunofluorescence. C. Autophagic vacuoles stained with monodansylcadaverine (MDC). After STF-62247 treatment in the same conditions, MDC was added for the last 10 minutes. Cells were fixed, washed with PBS and observed directly under microscope. D. Western blot for LC3 in RCC4, RCC4/VHL, SN12C, and SN12C-VHL shRNA cells after STF-62247 treatment with or without 3-MA. Nutrient starvation (EBSS) is used as positive control. E. Western blot for LC3 in RCC4 and RCC4/VHL with different concentrations of STF-62247. Tubulin was used as loading control. F. Cell viability assay in VHL-deficient RCC4 and wild-type VHL cells treated with 1 mM of 3-MA, 1.25 μM of STF-62247 alone or in combination for 24 hrs. Viability is measured by trypan blue exclusion assay and is represented by the average of three different experiments in duplicate as the percent of treated on untreated cells. The error bars are represented as SEM.
# A. VHL-deficient RCC4 and wild-type VHL were incubated in presence of 10 μM LY294002, or 1 μg/mlBrefeldin A with 1.25 μM of STF-62247 for 20 hrs and the presence of vacuoles was examined under light microscopy. B,C. LC3 processing was evaluated by Western blot after the treatment with Brefeldin A or LY294002 in presence or absence of STF-62247 as described above. Tubulin was used as loading control. D. Cells were treated with 1.25 μM of STF-62247 with or without 2 mM of 3-MA, 1 μg/ml of Brefeldin A for 20 hrs. For the last 15 min, acidic components were stained with 1 μg/ml of acridine orange and visualized under fluorescence microscope. […] F. Quantification of the FACS analysis. The data are calculated as the average of three different experiments as relative units of treated over untreated cells. The error bars are represented as the standard error of the mean (SEM).
# B,C. LC3 processing was evaluated by Western blot after the treatment with U0126 or tunicamycin in presence or absence of STF-62247 as described above. Tubulin was used as loading control.
SMILES,melting point [°C],IC50 (RCC4 cells; Table 1) [µM],IC50 (RCC4 cells; Table 2) [µM],effect of inhibitor on vacuole formation and LC3-II induced by STF-62247 (LC3)
"COc1cc(Nc2nc(-c3ccncc3)cs2)cc(OC)c1OC [Compound 63, 4-(4-Pyridinyl)-N-(3,4,5-trimethoxyphenyl)-1,3-thiazol-2-amine]",207 to 209,> 40,–,–
"Fc1cccc(F)c1Nc1nc(-c2ccncc2)cs1 [Compound 139, N-(2,6-Difluorophenyl)-4-(4-pyridinyl)-1,3-thiazol-2-amine]",209 to 211,> 40,–,–
"Cc1cccc(Nc2nc(-c3cc[n+]([O-])cc3)cs2)c1 [Compound 188, N-(3-Methylphenyl)-4-(1-oxido-4-pyridinyl)-1,3-thiazol-2-amine]",162 to 164,–,> 40,–
"O=C(Nc1nc(-c2ccncc2)cs1)c1ccccc1 [Compound 99, N-[4-(4-Pyridinyl)-1,3-thiazol-2-yl]benzamide]",241 to 243,> 40,–,–
"Cc1ccc(C(=O)Nc2nc(-c3ccncc3)cs2)cc1 [Compound 101, 4-Methyl-N-[4-(4-pyridinyl)-1,3-thiazol-2-yl]benzamide]",238 to 241,> 40,–,–
"O=[N+]([O-])c1ccccc1Nc1nc(-c2ccncc2)cs1 [Compound 119, N-[2-Nitrophenyl]-4-(4-pyridinyl)-1,3-thiazol-2-amine]",127 to 130,> 40,–,–
"Fc1cccc(Nc2nc(-c3ccncc3)cs2)c1 [Compound 121, N-(3-Fluorophenyl)-4-(4-pyridinyl)-1,3-thiazol-2-amine]",229 to 230,> 40,–,–
"N#CC(=C(/N)Sc1ccccc1N)/C(C#N)=C(\N)Sc1ccccc1N [Compound U0126, reference compound]",–,–,–,had little effect on autophagy induced by STF-62247
"Cc1cccc(Nc2nc(-c3ccnc(C)c3)cs2)c1 [Compound 145, N-(3-Methylphenyl)-4-(2-methyl-4-pyridinyl)-1,3-thiazol-2-amine]",198 to 200,–,> 40,–
"CC(C)(C)c1cccc(Nc2nc(-c3ccncc3)cs2)c1 [Compound 11, N-(3-tert-Butylphenyl)-4-(4-pyridinyl)-1,3-thiazol-2-amine]",208 to 210,> 40,–,–
"Cc1cccc(C)c1Nc1nc(-c2ccncc2)cs1 [Compound 137, N-(2,6-Dimethylphenyl)-4-(4-pyridinyl)-1,3-thiazol-2-amine]",208 to 210,> 40,–,–

# Further lines, with some results ahead:
melting point [°C],SMILES,IC50 (RCC4 cells; Table 1) [µM],IC50 (RCC4 cells; Table 2) [µM],effect of inhibitor on vacuole formation and LC3-II induced by STF-62247 (LC3)
220 to 223,"Cc1cccc(Nc2nc(-c3ccncc3)c(C=O)s2)c1 [Compound 77, 2-[(3-Methylphenyl)amino]-4-(4-pyridinyl)-1,3-thiazole-5-carbaldehyde]",15,–,–
121 to 123,"COC(=O)CCc1sc(Nc2cccc(C)c2)nc1-c1ccncc1 [Compound 79, Methyl 3-[2-[(3-Methylphenyl)amino]-4-(4-pyridinyl)-1,3-thiazol-5-yl]propanoate]",> 40,–,–
239 to 241,"FC(F)(F)c1cccc(Nc2nc(-c3ccncc3)cs2)c1 [Compound 19, 4-(4-Pyridinyl)-N-[3-(trifluoromethyl)phenyl]-1,3-thiazol-2-amine]",> 40,–,–
170 to 172,"FC(F)(F)c1ccccc1Nc1nc(-c2ccncc2)cs1 [Compound 117, 4-(4-Pyridinyl)-N-[2-(trifluoromethyl)phenyl]-1,3-thiazol-2-amine]",> 40,–,–
192 to 194,"Cc1cccc(CNc2nc(-c3ccncc3)cs2)c1 [Compound 103, N-(3-Methylbenzyl)-4-(4-pyridinyl)-1,3-thiazol-2-amine]",> 40,–,–
190 to 192,"Cc1cccc(Nc2nc(-c3ccncc3)c(C(=O)NCCCN3CCOCC3)s2)c1 [Compound 94, 2-[(3-Methylphenyl)amino]-N-[3-(4-morpholinyl)propyl]-4-(4-pyridinyl)-1,3-thiazole-5-carboxamide]",> 40,–,–
203 to 205,"CCOC(=O)c1sc(Nc2ccc3c(c2)CCC3)nc1-c1ccncc1 [Compound 89, Ethyl 2-(2,3-Dihydro-1H-inden-5-ylamino)-4-(4-pyridinyl)-1,3-thiazole-5-carboxylate]",> 40,–,–
> 300,"N#Cc1ccc(Nc2nc(-c3ccncc3)cs2)cc1 [Compound 135, 4-{[4-(4-Pyridinyl)-1,3-thiazol-2-yl]amino}benzonitrile]",> 40,–,–
271 to 274,"COc1ccc(C(=O)Nc2nc(-c3ccncc3)cs2)cc1 [Compound 102, 4-Methoxy-N-[4-(4-pyridinyl)-1,3-thiazol-2-yl]benzamide]",> 40,–,–
233 to 235,"CCOC(=O)c1sc(Nc2cccc(C)c2)nc1-c1ccncc1 [Compound 88, Ethyl 2-[(3-Methylphenyl)amino]-4-(4-pyridinyl)-1,3-thiazole-5-carboxylate]",> 40,–,–
229 to 231,"COc1cc(Nc2nc(-c3ccncc3)cs2)cc(OC)c1 [Compound 57, N-(3,5-Dimethoxyphenyl)-4-(4-pyridinyl)-1,3-thiazol-2-amine]",> 40,–,–
252 to 253,"N#Cc1cccc(Nc2nc(-c3ccncc3)cs2)c1 [Compound 127, 3-{[4-(4-Pyridinyl)-1,3-thiazol-2-yl]amino}benzonitrile]",> 40,–,–
189 to 191,"Cc1cccc(Nc2nc(-c3ccncc3)c(C(=O)NCCN(C)C)s2)c1 [Compound 93, N-[2-(Dimethylamino)ethyl]-2-[(3-methylphenyl)amino]-4-(4-pyridinyl)-1,3-thiazole-5-carboxamide]",> 40,–,–
159 to 161,Cc1cccc(Nc2nc(-c3ccncc3N)cs2)c1 [Compound 182],–,> 40,–
